US12648918B2, “Use of parabulin for targeting protozoan tubulin for the inhibition of protozoan replication” (Paul Scherrer Institut, priority 2020, dated 2026)

Experiments:
[1] = tested on: human fibroblast cells; experiment: toxicity assay on cultured human fibroblast cells; assay type: cell-based; details: sub-confluent (proliferating) fibroblasts, 72 hours, 25 μM
Procedure: To assess the potential of parabulin as a bona fide anti-parasitic agent, its effects were evaluated on cultures of human cells and growth of the apicomplexan parasite Toxoplasma gondii within human cells. […] CA4 has well-defined anti-mitotic activity due to its disruption of vertebrate MTs.
FIG. 4(A) depicts a toxicity assay showing the effect of parabulin and CA4 on cultured human fibroblast cells.

[2] = tested on: T. thermophila; experiment: turbidity based T. thermophila cell growth inhibition assay; set-up: species or system Tetrahymena thermophila; details: parabulin 50 μM (FIG. 2D)
From the text: Zoom outs showing differences in the Taxane-, Pironetin—and Colchicine-sites between T. thermophila (light grey) and H. sapiens (wheat) tubulin. The three distinct zones of the Colchicine site are highlighted by colored transparent ovals. Amino acid residue differences between human and protozoa tubulin are indicated. […] FIG. 2(C) represents the chemical structures of CA4 and parabulin. The two CA4 rings, denoted A and B, are highlighted as well as the linker (yellow). FIG. 2(D) is a plot showing the time course of T. thermophila cell growth in the presence of CA4 (20 μM) or parabulin (50 μM; error bars corresponding to the standard deviation of triplicate measurements).
To assess the activity of any putative anti parasitic compound, a turbidity based T. thermophila cell growth inhibition assay was put in place in parallel to the efforts to solve T. thermophila MT and tubulin structures.
(§1) To test if parabulin is able to bind to tubulin, its activity was assessed in vitro on dynamic MTs using our TIRF microscopy reconstitution assay. In contrast to the dynamic periods of growth and shrinkage observed for T. thermophila MTs (FIG. 1C), the addition of parabulin led to a striking reduction in the numbers of growth events (FIG. 3A).

[3] = tested on: Toxoplasma gondii; experiment: T. gondii plaque assay; assay type: cell-based; details: seven days
Procedure: (§2) In order to assess the efficacy of parabulin, T. gondii tachyzoite replication was followed 36 h after addition of parabulin. […] A T. gondii plaque assay was used to determine the concentration at which parasite replication is reduced by half (EC50 value). When confluent fibroblast monolayers were infected with wild-type tachyzoites and left to grow for seven days, lytic parasite growth created visible holes in the vertebrate fibroblast monolayer. Both the plaque numbers and sizes were reduced by parabulin treatment.

[4] = target: T1, T. thermophila MTs (Tt-MT) (Tetrahymena thermophila, UniProt P41351+P41352); experiment: TIRF microscopy MT dynamics reconstitution assay; assay type: biochemical
T1 construct: it was decided to isolate tubulin dimers from a protozoa organism; from tissue; host or cells: Tetrahymena thermophila cells (native tubulin isolated from the ciliate)
T1 sequence (P41352 whole entry): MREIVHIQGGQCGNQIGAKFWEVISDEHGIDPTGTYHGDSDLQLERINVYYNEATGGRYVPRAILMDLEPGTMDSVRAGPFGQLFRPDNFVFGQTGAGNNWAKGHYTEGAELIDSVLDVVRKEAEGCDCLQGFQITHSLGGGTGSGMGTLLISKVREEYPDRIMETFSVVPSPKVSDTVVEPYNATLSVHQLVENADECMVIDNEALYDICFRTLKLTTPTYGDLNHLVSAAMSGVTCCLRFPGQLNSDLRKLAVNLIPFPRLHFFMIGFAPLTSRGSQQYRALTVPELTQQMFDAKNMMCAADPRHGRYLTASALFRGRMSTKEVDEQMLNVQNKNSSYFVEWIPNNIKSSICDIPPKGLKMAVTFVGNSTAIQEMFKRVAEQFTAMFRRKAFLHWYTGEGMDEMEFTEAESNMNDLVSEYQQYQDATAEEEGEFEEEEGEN
T1 sequence (P41351 whole entry): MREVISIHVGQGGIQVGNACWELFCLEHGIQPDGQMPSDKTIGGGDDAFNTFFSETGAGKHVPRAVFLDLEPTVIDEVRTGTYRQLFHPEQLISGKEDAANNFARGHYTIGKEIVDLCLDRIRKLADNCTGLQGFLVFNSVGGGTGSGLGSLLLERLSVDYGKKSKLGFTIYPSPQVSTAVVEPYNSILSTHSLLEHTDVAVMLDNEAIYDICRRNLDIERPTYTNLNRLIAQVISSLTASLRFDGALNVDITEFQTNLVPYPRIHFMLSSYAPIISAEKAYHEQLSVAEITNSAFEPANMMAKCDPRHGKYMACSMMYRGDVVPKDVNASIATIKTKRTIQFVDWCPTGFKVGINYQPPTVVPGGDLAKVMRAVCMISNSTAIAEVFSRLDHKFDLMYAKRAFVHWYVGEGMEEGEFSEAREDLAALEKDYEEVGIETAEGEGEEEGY
From the text: FIG. 1(D) is a plot of Tt-MT plus-end growth rates as a function of tubulin concentration. Error bars represent the mean +/−95% CI. […] Left: outside view. The α- and β-tubulin monomers are shown in ribbon representation and colored in dark and light gray, respectively. […] Right: tubulin dimer models fitted into a sliced, transparent and zoomed-in view. The paclitaxel structure in stick representation is highlighted in magenta. Lateral contacts between protofilaments are indicated in blue (H2-S3 in α2 and β2), red (H1-S2 in α2 and β2) and green (M loop in α1 and β1).
as §1
FIG. 3(A) is a plot showing the quantification of the Tt-MT growth events in TIRF microscopy MT dynamics reconstitution assays in the presence of the indicated drugs. Error bars represent the mean +/−95% CI. […] Error bars represent the mean +/−95% CI. […] FIG. 3(C) represents the Tt-MT length in the presence of the indicated drugs (40 μM). Error bars represent the mean +/−95% CI.
The average number of growth events per 10-minute movie decreased from 41.3 to 3.8 even though the number of MT seeds immobilized on the cover slide was similar.

[5] = tested on: Toxoplasma gondii; experiment: T. gondii tachyzoite replication; assay type: cell-based; details: 36 h after addition; controls above 96% eight cell-stage
Procedure: as §2

[6] = drugs 40 μM, one-way ANOVA vs DMSO

## COc1ccc(/C=C\c2cc(OC)c(OC)c(OC)c2)cc1O [CA4, Combretastatin A4, reference compound]
[1]
  cell survival: 46%

## COc1ccc(C=CC(=O)NCc2cc(OC)c(OC)c(OC)c2)cc1OC [parabulin, 3-(3,4-dimethoxyphenyl)-N-[(3,4,5-trimethoxyphenyl)methyl]prop-2-enamide]
[2]
  T. thermophila cell growth: inhibited T. thermophila cell growth
[3]; Toxoplasma gondii, 168 h, confluent fibroblast monolayers, wild-type tachyzoites, read-out: EC50 (plaque area relative to control)
  EC50: 6.5 µM
[3]
  plaque numbers and sizes: reduced
[1]
  cell survival: 99%
[4]; Tt-MT, control (DMSO) 41.3, similar number of MT seeds
  average number of growth events per 10-minute movie: 3.8
[4]; [6]
  Tt-MT growth length vs control: no significant differences
  Tt-MT growth rate vs control: no significant differences
[5]
  eight cell-stage parasites (replication): no eight cell-stage observed
